Test results published in US9499519B2, “Fused pyrimidine compounds and use thereof” (Medivation Technologies, Inc., priority 2012, dated 2016).
Where two headings read alike, the source gives them in different places.

Tests used:
PYK2 = PYK2 (Homo sapiens, UniProt Q14289); assay: Caliper kinase assay: PYK2 (called FAK2); conditions: FAK2, 0.01 μM
Method: (§6) The compound was tested at concentrations of 1.0×10^−8 and 1.0×10^−9 M in the RapidKinase192™ panel in duplicate. […] The screening was performed using the Caliper EZReader2, a 4-sipper LabChip, and ProfilerPro Kinase Selectivity Assay Kits 1 and 2. The assay measures the conversion of a fluorescent peptide substrate to a phosphorylated product. Briefly, the reaction mixture was introduced through a capillary sipper onto the microfluidic chip, where the substrate and product were electrophoretically separated and detected by laser-induced fluorescence. The time-dependent fluorescence signal indicates the extent of the reaction.
(§7) The kinases tested were AurA, AurB, AurC, AXL, FAK2, IGF1R, InsR, Mer, MET, Trk B and Trk C.
(§8) The assays were conducted using the Caliper LabChip 3000 and a 12-sipper LabChip as described above.

IR = biological target: T1, IR (Homo sapiens, UniProt P06213); assay: In vitro IR enzymatic assay (ADP-Glo kinase assay); assay type: biochemical; conditions: activated IR, 30 nM
T1 construct: purchased Millipore 14-803
T1 sequence (P06213 28-1382): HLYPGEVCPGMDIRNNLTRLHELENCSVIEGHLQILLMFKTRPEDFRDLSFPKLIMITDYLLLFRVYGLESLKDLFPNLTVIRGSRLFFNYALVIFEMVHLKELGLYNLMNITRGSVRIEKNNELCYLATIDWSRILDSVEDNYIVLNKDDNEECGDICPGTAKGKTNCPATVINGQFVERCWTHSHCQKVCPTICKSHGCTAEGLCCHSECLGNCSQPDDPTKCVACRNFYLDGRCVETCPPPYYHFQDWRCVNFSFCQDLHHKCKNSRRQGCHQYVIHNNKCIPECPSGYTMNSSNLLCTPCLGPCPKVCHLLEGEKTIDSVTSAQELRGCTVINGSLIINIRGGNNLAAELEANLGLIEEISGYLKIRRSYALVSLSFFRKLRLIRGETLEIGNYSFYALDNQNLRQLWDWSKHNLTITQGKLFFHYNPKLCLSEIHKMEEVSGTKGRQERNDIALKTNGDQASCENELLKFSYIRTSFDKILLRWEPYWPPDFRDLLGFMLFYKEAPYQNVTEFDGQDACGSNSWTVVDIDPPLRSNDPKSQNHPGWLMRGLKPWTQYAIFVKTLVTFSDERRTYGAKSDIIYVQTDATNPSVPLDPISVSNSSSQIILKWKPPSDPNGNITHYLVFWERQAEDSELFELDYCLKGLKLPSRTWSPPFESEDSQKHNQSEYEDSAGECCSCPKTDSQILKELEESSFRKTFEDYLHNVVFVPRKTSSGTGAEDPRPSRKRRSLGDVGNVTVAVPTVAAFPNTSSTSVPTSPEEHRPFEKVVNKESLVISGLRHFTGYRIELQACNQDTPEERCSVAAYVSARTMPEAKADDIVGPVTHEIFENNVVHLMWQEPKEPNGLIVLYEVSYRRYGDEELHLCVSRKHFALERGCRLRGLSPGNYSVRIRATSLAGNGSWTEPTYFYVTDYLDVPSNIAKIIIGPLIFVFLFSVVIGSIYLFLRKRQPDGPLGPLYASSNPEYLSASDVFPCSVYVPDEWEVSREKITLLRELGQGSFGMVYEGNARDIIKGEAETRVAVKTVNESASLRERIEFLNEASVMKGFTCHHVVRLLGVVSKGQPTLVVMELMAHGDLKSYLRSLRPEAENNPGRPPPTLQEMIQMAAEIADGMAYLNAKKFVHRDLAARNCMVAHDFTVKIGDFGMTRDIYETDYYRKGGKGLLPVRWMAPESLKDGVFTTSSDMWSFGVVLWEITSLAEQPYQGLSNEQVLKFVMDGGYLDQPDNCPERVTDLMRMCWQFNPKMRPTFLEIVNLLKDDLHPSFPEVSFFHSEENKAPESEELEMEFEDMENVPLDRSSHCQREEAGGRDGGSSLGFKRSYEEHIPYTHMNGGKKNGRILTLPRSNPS
Method: (§1) IC50 values of the compounds of the invention against IGF-1R and IR were measured in vitro using an ADP-Glo kinase assay Kit (Promega). […] Kinase reactions in both assays were conducted at 30° C. for 20 min with increasing concentrations of compounds of the invention.
Additional compounds of the invention were screened against activated IR.

AXL = biological target: T2, AXL (Homo sapiens, UniProt P30530); assay: Caliper kinase assay: AXL; conditions: 0.01 μM
T2 sequence (P30530 26-894): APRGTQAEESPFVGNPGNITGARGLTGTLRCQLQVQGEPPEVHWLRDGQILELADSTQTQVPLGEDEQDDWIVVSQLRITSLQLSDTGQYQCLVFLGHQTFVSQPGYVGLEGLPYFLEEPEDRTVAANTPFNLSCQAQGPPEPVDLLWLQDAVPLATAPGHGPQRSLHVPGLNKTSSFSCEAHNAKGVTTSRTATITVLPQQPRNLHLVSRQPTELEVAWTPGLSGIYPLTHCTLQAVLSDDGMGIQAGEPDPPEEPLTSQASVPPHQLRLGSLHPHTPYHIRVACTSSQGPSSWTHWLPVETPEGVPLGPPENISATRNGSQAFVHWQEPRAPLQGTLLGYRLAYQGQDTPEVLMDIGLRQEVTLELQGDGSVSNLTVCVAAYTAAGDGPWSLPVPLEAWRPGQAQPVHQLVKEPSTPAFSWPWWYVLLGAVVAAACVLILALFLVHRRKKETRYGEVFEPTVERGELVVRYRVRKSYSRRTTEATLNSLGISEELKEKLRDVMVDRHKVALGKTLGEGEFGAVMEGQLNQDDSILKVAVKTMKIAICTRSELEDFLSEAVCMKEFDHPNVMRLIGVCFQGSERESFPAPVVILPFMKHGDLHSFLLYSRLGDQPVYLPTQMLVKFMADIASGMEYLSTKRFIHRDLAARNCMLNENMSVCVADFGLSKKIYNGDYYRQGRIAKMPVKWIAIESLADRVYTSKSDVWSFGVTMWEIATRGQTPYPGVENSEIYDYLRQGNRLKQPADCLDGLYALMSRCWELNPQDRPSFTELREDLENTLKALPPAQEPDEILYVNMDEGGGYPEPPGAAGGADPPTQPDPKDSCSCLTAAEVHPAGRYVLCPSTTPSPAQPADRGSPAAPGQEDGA
Method: as §6, §7, §8

NTRK2(TRKB) = NTRK2(TRKB) (Homo sapiens, UniProt Q16620); assay: Caliper kinase assay: NTRK2 (TRKB); conditions: Trk B, 0.01 μM
Chain of NTRK2(TRKB) (Q16620 32-822): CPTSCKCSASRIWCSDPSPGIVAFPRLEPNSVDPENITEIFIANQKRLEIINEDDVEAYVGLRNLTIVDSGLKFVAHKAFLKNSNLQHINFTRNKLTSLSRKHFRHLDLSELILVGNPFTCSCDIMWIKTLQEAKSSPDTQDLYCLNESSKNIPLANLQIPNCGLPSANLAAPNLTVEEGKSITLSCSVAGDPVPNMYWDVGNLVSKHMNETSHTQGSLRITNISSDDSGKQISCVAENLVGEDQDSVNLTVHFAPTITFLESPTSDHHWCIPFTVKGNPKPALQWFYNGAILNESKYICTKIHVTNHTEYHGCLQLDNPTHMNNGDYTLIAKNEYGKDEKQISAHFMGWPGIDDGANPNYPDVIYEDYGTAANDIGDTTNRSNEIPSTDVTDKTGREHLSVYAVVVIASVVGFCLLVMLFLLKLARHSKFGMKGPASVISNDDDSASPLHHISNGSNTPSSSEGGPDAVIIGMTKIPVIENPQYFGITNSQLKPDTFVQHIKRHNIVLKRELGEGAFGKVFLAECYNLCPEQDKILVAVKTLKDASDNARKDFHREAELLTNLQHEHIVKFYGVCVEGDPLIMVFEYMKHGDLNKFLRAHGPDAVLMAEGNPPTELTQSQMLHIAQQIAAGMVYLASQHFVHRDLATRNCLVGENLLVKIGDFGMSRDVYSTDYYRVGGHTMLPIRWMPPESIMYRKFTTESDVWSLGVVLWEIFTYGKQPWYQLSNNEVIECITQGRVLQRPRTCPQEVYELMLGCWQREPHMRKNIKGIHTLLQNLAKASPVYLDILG
Method: as §6, §7, §8

IGF-1R = biological target: T3, IGF-1R (Homo sapiens, UniProt P08069); assay: In vitro IGF-1R enzymatic assay (ADP-Glo kinase assay); assay type: biochemical; conditions: activated IGF-1R, 30 nM
T3 construct: purchased Millipore 14-802
T3 sequence (P08069 31-1367): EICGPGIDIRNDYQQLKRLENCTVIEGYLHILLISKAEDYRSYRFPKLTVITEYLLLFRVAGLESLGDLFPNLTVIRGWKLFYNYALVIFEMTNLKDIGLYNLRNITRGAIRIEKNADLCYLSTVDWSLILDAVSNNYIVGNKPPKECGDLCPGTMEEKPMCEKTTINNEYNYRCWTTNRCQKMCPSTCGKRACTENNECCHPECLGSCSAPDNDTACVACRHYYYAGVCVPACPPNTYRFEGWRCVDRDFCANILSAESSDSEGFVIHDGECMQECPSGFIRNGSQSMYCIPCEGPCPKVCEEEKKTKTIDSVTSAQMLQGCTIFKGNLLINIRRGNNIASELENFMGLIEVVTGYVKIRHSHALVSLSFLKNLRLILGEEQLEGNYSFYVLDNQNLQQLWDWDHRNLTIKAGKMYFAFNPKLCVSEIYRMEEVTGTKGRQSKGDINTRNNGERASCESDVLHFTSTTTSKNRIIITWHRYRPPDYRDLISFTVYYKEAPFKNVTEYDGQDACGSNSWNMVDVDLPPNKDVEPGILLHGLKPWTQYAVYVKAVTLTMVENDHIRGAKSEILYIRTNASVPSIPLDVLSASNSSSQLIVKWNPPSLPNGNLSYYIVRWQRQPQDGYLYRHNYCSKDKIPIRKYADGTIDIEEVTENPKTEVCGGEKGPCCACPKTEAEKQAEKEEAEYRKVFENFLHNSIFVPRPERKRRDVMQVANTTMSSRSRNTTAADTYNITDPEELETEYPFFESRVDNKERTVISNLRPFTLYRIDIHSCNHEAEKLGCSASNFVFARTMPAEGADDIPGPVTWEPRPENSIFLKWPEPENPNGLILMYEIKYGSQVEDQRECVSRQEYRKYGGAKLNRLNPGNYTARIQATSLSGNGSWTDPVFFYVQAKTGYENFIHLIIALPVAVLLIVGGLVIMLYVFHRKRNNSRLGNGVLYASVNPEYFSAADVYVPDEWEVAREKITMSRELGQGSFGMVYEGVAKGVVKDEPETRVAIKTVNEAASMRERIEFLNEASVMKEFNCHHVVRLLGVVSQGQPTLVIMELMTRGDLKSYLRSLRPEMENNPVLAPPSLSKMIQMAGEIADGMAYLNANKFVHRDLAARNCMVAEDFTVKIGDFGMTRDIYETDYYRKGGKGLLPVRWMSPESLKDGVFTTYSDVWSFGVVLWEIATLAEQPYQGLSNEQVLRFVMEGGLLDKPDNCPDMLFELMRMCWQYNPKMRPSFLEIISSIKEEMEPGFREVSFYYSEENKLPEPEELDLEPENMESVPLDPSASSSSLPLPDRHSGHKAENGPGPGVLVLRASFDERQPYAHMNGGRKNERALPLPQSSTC
Method: as §1
Additional compounds of the invention were screened against activated IGF-1R.

TRKC(NTRK3) = TRKC(NTRK3) (Homo sapiens, UniProt Q16288); assay: Caliper kinase assay: TRKC (NTRK3); conditions: Trk C, 0.01 μM
Method: as §6, §7, §8

[1] = test system: Akt phosphorylation induced by IGF-1R; assay: Western blot analysis of Akt phosphorylation induced by IGF-1 in HT-29 cells; assay type: cell-based, Human; conditions: for Levels of phosphorylated AKT in treated cells (pAKT/actin): HT-29 cells, IGF-1; for p-AKT relative to levels with 0.1 nM compound: Table B2 lower part; for Normalized phosphorylated AKT (relative to actin) levels relative to 0.1 nM compound treatment: Table B2 upper part; for pAKT relative to 0.1 nM compound: derivatives of Cpd. No. 8b
Summary of the method: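 HT-29 cells grown 24 h in DME/F12 with 10% FBS, serum-starved 24 h, then exposed 2 h to compound at 0.1, 1, 10 or 100; controls received DMSO or 10 ng/mL IGF-1. Lysate soluble fractions quantified by BCA before western blotting for phospho-Akt.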

UACC 812 = assay: Cell Titer-Glo cell viability: UACC 812; assay type: cell-based; conditions: UACC812, any concentration tested, 3 μM maximum
Method: (§2) Compound nos. […] This panel of cell lines includes an ER− breast carcinoma, primary breast ductal carcinoma, prostate adenocarcinoma, mammary adenocarcinoma, mammary ductal carcinoma, mammary ductal carcinoma, ovary adenocarcinoma, ER+ breast carcinoma, ER− HER2+ mammary ductal carcinoma and an ER+ mammary ductal carcinoma, respectively.
(§3) This assay quantitates the ATP present in order to determine the number of viable cells in culture. Briefly, the compounds were incubated with the cells for 72 h, followed by cell lysis. The resulting luminescent signal is proportional to the amount of ATP present and, therefore, directly proportional to the number of cells present in culture.
(§4) Compounds 2b, 5, 6b and 10a were tested along with derivatives in viability assays as described above by Caliper LifeSciences Systems (Hanover, Md.), in A549, HCT-15, HCT-116, MCF-7, MDA-MB-231, OVCAR3, T47D, COLO205, HT-29, BT-20, HCC1187, HL-60, MDA-MB-175, SW-620, and UACC812 cells.
(§5) The inhibitory effects of Compound 8a were tested in two cell lines.

MDA MB175 = assay: Cell Titer-Glo cell viability: MDA MB175; assay type: cell-based; conditions: MDA-MB-175, any concentration tested, 3 μM maximum
Method: as §2, §3, §4, §5

[2] = N1, read-out: % Inh @ 30 nM (N1)
[3] = N2, read-out: % Inh @ 30 nM (N2)
[4] = average, read-out: % Inh @ 30 nM Avg

Chain of PYK2 (Q14289 whole entry): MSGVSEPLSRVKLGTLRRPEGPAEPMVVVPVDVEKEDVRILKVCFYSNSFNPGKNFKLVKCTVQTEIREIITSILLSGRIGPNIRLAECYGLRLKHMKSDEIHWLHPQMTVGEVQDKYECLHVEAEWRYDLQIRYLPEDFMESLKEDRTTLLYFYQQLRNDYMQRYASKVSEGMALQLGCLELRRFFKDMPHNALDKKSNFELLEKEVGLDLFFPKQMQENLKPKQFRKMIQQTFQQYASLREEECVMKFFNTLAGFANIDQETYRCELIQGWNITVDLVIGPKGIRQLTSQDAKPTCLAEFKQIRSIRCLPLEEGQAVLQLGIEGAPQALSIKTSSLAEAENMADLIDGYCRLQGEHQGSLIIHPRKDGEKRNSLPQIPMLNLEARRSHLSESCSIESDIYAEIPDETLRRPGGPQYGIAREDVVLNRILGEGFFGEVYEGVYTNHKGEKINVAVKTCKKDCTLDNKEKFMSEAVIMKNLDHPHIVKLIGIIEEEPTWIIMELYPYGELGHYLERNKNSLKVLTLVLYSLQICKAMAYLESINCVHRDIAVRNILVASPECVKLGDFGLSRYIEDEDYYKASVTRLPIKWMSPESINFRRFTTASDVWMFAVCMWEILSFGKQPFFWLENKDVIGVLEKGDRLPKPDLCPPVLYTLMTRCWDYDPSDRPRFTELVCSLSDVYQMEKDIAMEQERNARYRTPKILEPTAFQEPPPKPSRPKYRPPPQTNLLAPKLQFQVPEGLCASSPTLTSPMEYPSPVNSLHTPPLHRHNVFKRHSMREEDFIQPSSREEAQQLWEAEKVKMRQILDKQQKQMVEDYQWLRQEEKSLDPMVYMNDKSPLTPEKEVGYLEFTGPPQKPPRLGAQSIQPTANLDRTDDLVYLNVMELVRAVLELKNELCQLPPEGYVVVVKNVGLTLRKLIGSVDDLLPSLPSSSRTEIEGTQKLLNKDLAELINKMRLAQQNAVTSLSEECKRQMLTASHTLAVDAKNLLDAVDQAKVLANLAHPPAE

Row | inhibition at 0.03 µM (IGF-1R; [4]) | Compound | Levels of phosphorylated AKT in treated cells (pAKT/actin) ([1]; 0.1 nM compound) | p-AKT relative to levels with 0.1 nM compound ([1]; 0.1 nM) | Normalized phosphorylated AKT (relative to actin) levels relative to 0.1 nM compound treatment ([1]; 0.1 nM) | Levels of phosphorylated AKT in treated cells (pAKT/actin) ([1]; 1 nM compound) | p-AKT relative to levels with 0.1 nM compound ([1]; 1 nM) | Normalized phosphorylated AKT (relative to actin) levels relative to 0.1 nM compound treatment ([1]; 1 nM) | Levels of phosphorylated AKT in treated cells (pAKT/actin) ([1]; 10 nM compound) | p-AKT relative to levels with 0.1 nM compound ([1]; 10 nM) | Levels of phosphorylated AKT in treated cells (pAKT/actin) ([1]; 100 nM compound) | p-AKT relative to levels with 0.1 nM compound ([1]; 100 nM) | Normalized phosphorylated AKT (relative to actin) levels relative to 0.1 nM compound treatment ([1]; 100 nM) | further results
1 | 94% | O=C(Nc1cnccn1)C1CCCN1c1nc2c(c(Nc3cc(C4CC4)[nH]n3)n1)CCC2 (single isomer, unassigned) [Compound 6b, 1-(4-(3-cyclopropyl-1H-pyrazol-5-ylamino)-6,7-dihydro-5H-cyclopenta[d]pyrimidin-2-yl)-N-(pyrazin-2-yl)pyrrolidine-2-carboxamide] | 0.87 | 1.0 | 1.0 | 0.18 | 0.2 | 0.2 | 0.00 | 0.0 | 0.00 | 0.0 | 0.0 | inhibition of kinase (PYK2): strongly inhibited; inhibition at 0.03 µM (IR; [2]): 92%; inhibition at 0.03 µM (IR; [3]): 91%; inhibition at 0.03 µM (IR; [4]): 92%; inhibition of kinase (AXL): strongly inhibited; inhibition of kinase (NTRK2(TRKB)): strongly inhibited; inhibition at 0.03 µM (IGF-1R; [2]): 93%; inhibition at 0.03 µM (IGF-1R; [3]): 95%; inhibition of kinase (TRKC(NTRK3)): strongly inhibited; pAKT relative to 0.1 nM compound ([1]; 0.1 nM): 1.00; pAKT relative to 0.1 nM compound ([1]; 1 nM): 0.39; pAKT relative to 0.1 nM compound ([1]; 10 nM): 0.02; pAKT relative to 0.1 nM compound ([1]; 100 nM): 0.01
2 | 0% | CC(C)c1cc(Nc2nc(N3CCC[C@H]3C(=O)Nc3ccc(F)nc3)nc3c2CCC3)n[nH]1 (single isomer, unassigned) [Compound 8a] | 1.93 | 1.0 | 1.0 | 2.27 | 1.2 | 1.2 | 1.17 | 0.6 | 1.78 | 0.9 | 0.9 | proliferation as compared to the untreated control (UACC 812): ≥ 68%; proliferation as compared to the untreated control (MDA MB175): ≥ 68%; Normalized phosphorylated AKT (relative to actin) levels relative to 0.1 nM compound treatment ([1]; 10 nM): 0.6
